The subject of the data set is CCRIS mutagenicity, Ames/micronucleus/aberration tests. Kind of data set: CCRIS mutagenicity studies.
[1] abbreviates: Test System: AMES SALMONELLA TYPHIMURIUM, Strain/Indicator: TA98, Metabolic Activation: NONE, Method: STANDARD PLATE.
The mark [2] stands for this setting: Test System: AMES SALMONELLA TYPHIMURIUM, Strain/Indicator: TA98, Metabolic Activation: RAT, LIVER, S-9, AROCLOR 1254, Method: STANDARD PLATE.
[3] abbreviates: Test System: AMES SALMONELLA TYPHIMURIUM, Strain/Indicator: TA100, Metabolic Activation: NONE, Method: STANDARD PLATE.
The mark [4] stands for this setting: Test System: AMES SALMONELLA TYPHIMURIUM, Strain/Indicator: TA100, Metabolic Activation: RAT, LIVER, S-9, AROCLOR 1254, Method: STANDARD PLATE.
Where [5] appears, read: Test System: AMES SALMONELLA TYPHIMURIUM, Strain/Indicator: TA97, Metabolic Activation: NONE, Method: PREINCUBATION
Setting [6] is: Test System: AMES SALMONELLA TYPHIMURIUM, Strain/Indicator: TA102, Metabolic Activation: NONE, Method: PREINCUBATION

The source made the active and inactive calls. No rule for the calls is given here.

Consider `O=S(O)(O)=S`, for which the mutagenic call reads like this: under setting [1], “inactive; negative”; under setting [2], “inactive; negative”; under setting [3], “inactive; negative”; under setting [4], “inactive; negative”; (Test System: AMES SALMONELLA TYPHIMURIUM, Strain/Indicator: TA1535, Metabolic Activation: NONE, Method: STANDARD PLATE) “inactive; negative”; (Test System: AMES SALMONELLA TYPHIMURIUM, Strain/Indicator: TA1535, Metabolic Activation: RAT, LIVER, S-9, AROCLOR 1254, Method: STANDARD PLATE) “inactive; negative”. Further, the mutagenic call (Test System: AMES SALMONELLA TYPHIMURIUM, Strain/Indicator: TA1537, Metabolic Activation: NONE, Method: STANDARD PLATE) was “inactive; negative”; the mutagenic call (Test System: AMES SALMONELLA TYPHIMURIUM, Strain/Indicator: TA1537, Metabolic Activation: RAT, LIVER, S-9, AROCLOR 1254, Method: STANDARD PLATE) was “inactive; negative”; the mutagenic call (Test System: AMES SALMONELLA TYPHIMURIUM, Strain/Indicator: TA1538, Metabolic Activation: NONE, Method: STANDARD PLATE) is “inactive; negative”; the mutagenic call (Test System: AMES SALMONELLA TYPHIMURIUM, Strain/Indicator: TA1538, Metabolic Activation: RAT, LIVER, S-9, AROCLOR 1254, Method: STANDARD PLATE) is “inactive; negative”; the mutagenic call (Test System: E. COLI, Strain/Indicator: WP2, Metabolic Activation: NONE, Method: STANDARD PLATE) is “inactive; negative”; the mutagenic call (Test System: E. COLI, Strain/Indicator: WP2, Metabolic Activation: RAT, LIVER, S-9, AROCLOR 1254, Method: STANDARD PLATE) is “inactive; negative”.
In the case of `C1=Cc2cc3cc4ccccc4cc3c3cccc1c23`, the mutagenic call was “active; positive” (Test System: CHINESE HAMSTER OVARY, Strain/Indicator: V-79/6-THIOGUANINE, Metabolic Activation: RAT, LIVER, S-9, AROCLOR 1254, Method: FLASK ASSAY); “inactive; negative” (Test System: CHINESE HAMSTER OVARY, Strain/Indicator: V-79/6-THIOGUANINE, Metabolic Activation: SHE CELL MEDIATED, Method: FLASK ASSAY); “active; positive” (Test System: CHINESE HAMSTER V-79, Strain/Indicator: V-79/6-THIOGUANINE, Metabolic Activation: RAT, LIVER, S-9, AROCLOR 1254, Method: SUSPENSION/PLATE).
In the case of `CC/C=C/C=C/C=C/C=C/C=O`, the mutagenic call under setting [1] is “inactive; negative”; the mutagenic call under setting [3] is “inactive; negative”; the mutagenic call (Test System: AMES SALMONELLA TYPHIMURIUM, Strain/Indicator: TA104, Metabolic Activation: NONE, Method: STANDARD PLATE) is “inactive; negative”.
Take `C/C(=C(\CCOC(=O)c1ccccc1)SC(=O)c1ccccc1)N(C=O)Cc1cnc(C)nc1N`: the mutagenic call reads like this: under setting [5], “inactive; negative”; (Test System: AMES SALMONELLA TYPHIMURIUM, Strain/Indicator: TA97, Metabolic Activation: RAT, LIVER, S-9, AROCLOR 1254, Method: PREINCUBATION) “inactive; negative”; under setting [6], “inactive; negative”; (Test System: AMES SALMONELLA TYPHIMURIUM, Strain/Indicator: TA102, Metabolic Activation: RAT, LIVER, S-9, AROCLOR 1254, Method: PREINCUBATION) “inactive; negative”.
Turning to `CCCN(CCC)c1c([N+](=O)[O-])cc(C(F)(F)F)cc1[N+](=O)[O-]`, the mutagenic call is, setting by setting: (Test System: AMES SALMONELLA TYPHIMURIUM, Strain/Indicator: TA98, Metabolic Activation: LIVER S-9) “inactive; negative”; (Test System: AMES SALMONELLA TYPHIMURIUM, Strain/Indicator: TA98, Metabolic Activation: NONE) “inactive; negative”; (Test System: AMES SALMONELLA TYPHIMURIUM, Strain/Indicator: TA100, Metabolic Activation: LIVER S-9) “inactive; negative”; (Test System: AMES SALMONELLA TYPHIMURIUM, Strain/Indicator: TA100, Metabolic Activation: NONE) “inactive; negative”; (Test System: AMES SALMONELLA TYPHIMURIUM, Strain/Indicator: TA1535, Metabolic Activation: LIVER S-9) “inactive; negative”; (Test System: AMES SALMONELLA TYPHIMURIUM, Strain/Indicator: TA1535, Metabolic Activation: NONE) “inactive; negative”. In addition, the mutagenic call is “inactive; negative” (Test System: AMES SALMONELLA TYPHIMURIUM, Strain/Indicator: TA1537, Metabolic Activation: LIVER S-9); “inactive; negative” (Test System: AMES SALMONELLA TYPHIMURIUM, Strain/Indicator: TA1537, Metabolic Activation: NONE); “inactive; negative” (Test System: AMES SALMONELLA TYPHIMURIUM, Strain/Indicator: TA1538, Metabolic Activation: LIVER S-9); “inactive; negative” (Test System: AMES SALMONELLA TYPHIMURIUM, Strain/Indicator: TA1538, Metabolic Activation: NONE); “inactive; negative” (Test System: CHINESE HAMSTER V-79 CELLS, Strain/Indicator: HGPRT, Metabolic Activation: LIVER S-9); “inactive; negative” (Test System: CHINESE HAMSTER V-79 CELLS, Strain/Indicator: HGPRT, Metabolic Activation: NONE). The mutagenic call is “inactive; negative” (Test System: CHO-KI CELLS, Strain/Indicator: HGPRT, Metabolic Activation: LIVER S-9); “inactive; negative” (Test System: CHO-KI CELLS, Strain/Indicator: HGPRT, Metabolic Activation: NONE); “inactive; negative” (Test System: UDS HELA CELLS, Metabolic Activation: LIVER S-9); “inactive; negative” (Test System: UDS HELA CELLS, Metabolic Activation: NONE); “inactive; negative” (Test System: UDS RAT HEPATOCYTES, Metabolic Activation: NONE).
As to `Nn1nnc2c([nH]c3ccccc32)c1=O`, the mutagenic call is “active; positive” under setting [5]; “active; positive” (Test System: AMES SALMONELLA TYPHIMURIUM, Strain/Indicator: TA97, Metabolic Activation: S-9 (10%), Method: PREINCUBATION); “active; positive” (Test System: AMES SALMONELLA TYPHIMURIUM, Strain/Indicator: TA98, Metabolic Activation: NONE, Method: PREINCUBATION); “active; positive” (Test System: AMES SALMONELLA TYPHIMURIUM, Strain/Indicator: TA98, Metabolic Activation: S-9 (10%), Method: PREINCUBATION); “active; positive” (Test System: AMES SALMONELLA TYPHIMURIUM, Strain/Indicator: TA100, Metabolic Activation: NONE, Method: PREINCUBATION); “active; positive” (Test System: AMES SALMONELLA TYPHIMURIUM, Strain/Indicator: TA100, Metabolic Activation: S-9 (10%), Method: PREINCUBATION). In addition, the mutagenic call is “active; positive” under setting [6] and “active; positive” (Test System: AMES SALMONELLA TYPHIMURIUM, Strain/Indicator: TA102, Metabolic Activation: S-9 (10%), Method: PREINCUBATION).
In the case of `O=C1OCC(CCl)=C1Br`, under setting [3], the mutagenic call is “active; positive”.
Turning to `Cc1ccc2c(c1)C(C)c1ccccc1-2` (stereo not given), the mutagenic call under setting [2] was “inactive; negative” and the mutagenic call under setting [4] was “active; positive”.
`CN1CC[C@]23c4c5ccc(O)c4O[C@H]2[C@@H](O)C=C[C@H]3[C@H]1C5`: the mutagenic call under setting [2] is “inactive; negative”.
As to `Cc1c(/C=N/OCc2ccccc2)c2cc([N+](=O)[O-])ccc2n1Cc1cccc([N+](=O)[O-])c1`, the mutagenic call is, setting by setting: under setting [1], “active; positive”; (Test System: AMES SALMONELLA TYPHIMURIUM, Strain/Indicator: TA98, Metabolic Activation: RAT, LIVER, S-9, PHENOBARBITAL AND BETA-NAPHTHOFLAVONE, Method: STANDARD PLATE) “active; positive”; under setting [3], “inactive; negative”; (Test System: AMES SALMONELLA TYPHIMURIUM, Strain/Indicator: TA100, Metabolic Activation: RAT, LIVER, S-9, PHENOBARBITAL AND BETA-NAPHTHOFLAVONE, Method: STANDARD PLATE) “inactive; negative”.

For the origin of these results see PubChem BioAssay AID1259407 (Chemical Carcinogenesis Research Information System (CCRIS), 2018).
